Test results as given in patent US7348425B2, “Inhibitors of HCV replication” (Bristol-Myers Squibb Company, priority 2004, dated 2008).
Where two headings read alike, the source gives them in different places.

Key:
[1] = target: T1, HCV NS5B RdRp genotype 1b (Hepatitis C virus genotype 1b, UniProt Q9WMX2); assay: Standard HCV NS5B RdRp enzyme assay; type: biochemical; conditions: standard method
T1 construct: The protein was expressed with an 18 amino acid C-terminal truncation to enhance the solubility; made in house; host or cells: E. coli BL21 (DE3), pET21a
T1 sequence (Q9WMX2 2420-2992): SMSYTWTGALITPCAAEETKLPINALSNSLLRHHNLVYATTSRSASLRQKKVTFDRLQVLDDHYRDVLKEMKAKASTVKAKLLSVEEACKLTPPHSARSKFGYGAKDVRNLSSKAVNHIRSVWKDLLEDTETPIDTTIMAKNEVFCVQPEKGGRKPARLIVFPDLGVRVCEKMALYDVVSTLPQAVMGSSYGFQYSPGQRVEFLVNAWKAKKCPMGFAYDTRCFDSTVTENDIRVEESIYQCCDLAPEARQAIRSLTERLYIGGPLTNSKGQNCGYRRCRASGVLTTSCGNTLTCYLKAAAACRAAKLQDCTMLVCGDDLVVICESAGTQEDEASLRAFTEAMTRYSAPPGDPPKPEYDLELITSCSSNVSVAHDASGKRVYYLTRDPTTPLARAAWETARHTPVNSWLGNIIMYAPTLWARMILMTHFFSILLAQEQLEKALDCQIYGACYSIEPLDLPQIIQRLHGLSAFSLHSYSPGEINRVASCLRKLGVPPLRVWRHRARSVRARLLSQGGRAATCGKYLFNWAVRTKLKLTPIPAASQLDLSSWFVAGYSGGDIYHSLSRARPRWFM
Protocol: HCVNS5B RdRp cloning, expression, and purification. The cDNA encoding the NS5B protein of HCV, genotype 1b, was cloned into the pET21a expression vector. The protein was expressed with an 18 amino acid C-terminal truncation to enhance the solubility. The E. coli competent cell line BL21 (DE3) was used for expression of the protein. Cultures were grown at 37° C. for ˜4 hours until the cultures reached an optical density of 2.0 at 600 nm. The cultures were cooled to 20° C. and induced with 1 mM IPTG. Fresh ampicillin was added to a final concentration of 50 μg/ml and the cells were grown overnight at 20° C.
Cell pellets (3 L) were lysed for purification to yield 15-24 mgs of purified NS5B. The lysis buffer consisted of 20 mM Tris-HCl, pH 7.4, 500 mM NaCl, 0.5% triton X-100, 1 mM DTT, 1 mM EDTA, 20% glycerol, 0.5 mg/ml lysozyme, 10 mM MgCl2, 15 ug/ml deoxyribonuclease I, and Complete TM protease inhibitor tablets (Roche). After addition of the lysis buffer, frozen cell pellets were resuspended using a tissue homogenizer. To reduce the viscosity of the sample, aliquots of the lysate were sonicated on ice using a microtip attached to a Branson sonicator. The sonicated lysate was centrifuged at 100,000×g for 1 hr at 4° C. and filtered through a 0.2 μm filter unit (Corning).
The protein was purified using three sequential chromatography steps: Heparin sepharose CL-6B, polyU sepharose 4B, and Hitrap SP sepharose (Pharmacia). The chromatography buffers were identical to the lysis buffer but contained no lysozyme, deoxyribonuclease I, MgCl2 or protease inhibitor and the NaCl concentration of the buffer was adjusted according to the requirements for charging the protein onto the column. Each column was eluted with a NaCl gradient which varied in length from 5-50 column volumes depending on the column type. After the final chromatography step, the resulting purity of the enzyme is >90% based on SDS-PAGE analysis. The enzyme was aliquoted and stored at −80° C.
Standard HCV NS5B RdRp enzyme assay. HCV RdRp genotype Ib assays were run in a final volume of 60 μl in 96 well plates (Costar 3912). The assay buffer is composed of 20 mM Hepes, pH 7.5, 2.5 mM KCl, 2.5 mM MgCl2, 1 mM DTT, 1.6 U RNAse inhibitor (Promega N2515), 0.1 mg/ml BSA (Promega R3961), and 2% glycerol. All compounds were serially diluted (3-fold) in DMSO and diluted further in water such that the final concentration of DMSO in the assay was 2%. HCV RdRp genotype 1b enzyme was used at a final concentration of 28 nM. A polyA template was used at 6 nM, and a biotinylated oligo-dT12 primer was used at 180 nM final concentration. Template was obtained commercially (Amersham 27-4110). Biotinylated primer was prepared by Sigma Genosys. ^3H-UTP was used at 0.6 μCi (0.29 μM total UTP). Reactions were initiated by the addition of enzyme, incubated at 30° C. for 60 min, and stopped by adding 25 μl of 50 mM EDTA containing SPA beads (4 μg/μl, Amersham RPNQ 0007). Plates were read on a Packard Top Count NXT after >1 hr incubation at room temperature.
The IC50 values for compounds were determined using seven different [I]. IC50 values were calculated from the inhibition using the formula y=A+((B−A)/(1+((C/x)^D))). FRET Assay Preparation. To perform the HCV FRET screening assay, 96-well cell culture plates were used. The FRET peptide (Anaspec, Inc.) (Taliani et al., Anal. Biochem. 240:60-67 (1996), hereby incorporated by reference in its entirety) contains a fluorescence donor, EDANS, near one end of the peptide and an acceptor, DABCYL, near the other end. The fluorescence of the peptide is quenched by […] resonance energy transfer (RET) between the donor and the acceptor, but as the NS3 protease cleaves the peptide the products are released from RET quenching and the fluorescence of the donor becomes apparent. […]

HCV replicon = HCV replicon luciferase assay; type: cell-based, Hepatitis C virus; conditions: Hepatitis C virus
Protocol: To prepare plates, HCV replicon cells, with or without a Renilla luciferase reporter gene, were trypsinized and placed into each well of a 96-well plate with titrated test compounds added in columns 3 through 12; columns 1 and 2 contained a control compound (HCV protease inhibitor), and the bottom row contained cells without compound. The plates were then placed in a CO2 incubator at 37 degrees C.
Assays. Subsequent to addition of the test compounds described above (FRET Assay Preparation), at various times the plate was removed and Alamar blue solution (Trek Diagnostics, #00-100) was added per well as a measure of cellular toxicity. After reading in a Cytoflour 4000 instrument (PE Biosystems), plates were rinsed with PBS and then used for FRET assay by the addition of 30 ul of the FRET peptide assay reagent described above (FRET Assay Preparation) per well. The plate was then placed into the Cytoflour 4000 instrument which had been set to 340 excite/490 emission, automatic mode for 20 cycles and the plate read in a kinetic mode. Typically, the signal to noise using an endpoint analysis after the reads was at least three-fold. Alternatively, after Alamar blue reading, plates were rinsed with PBS, 50 ul of DMEM (high glucose) without phenol red was added and plates were then used for luciferase assay using the Promega Dual-Glo Luciferase Assay System.
Compound analysis was determined by quantification of the relative HCV replicon inhibition and the relative cytotoxicity values. To calculate cytoxicity values, the average Alamar Blue fluorescence signals from the control wells were set as 100% non-toxic. The individual signals in each of the compound test wells were then divided by the average control signal and multiplied by 100% to determine […]. To calculate the HCV replicon inhibition values, an average background value was obtained from the two wells containing the highest amount of HCV protease inhibitor at the end of the assay period. These numbers were similar to those obtained from naïve Huh-7 cells.
The background numbers were then subtracted from the average signal obtained from the control wells and this number was used as 100% activity. The individual signals in each of the compound test wells were then divided by the averaged control values after background subtraction and multiplied by 100% to determine percent activity. EC50 values for a protease inhibitor titration were calculated as the concentration which caused a 50% reduction in FRET or luciferase activity. The two numbers generated for the compound plate, percent cytoxicity and percent activity were used to determine compounds of interest for further analysis.

[2] = luciferase method, read-out: EC50

| SMILES | IC50 [1] [nM] | EC50 (HCV replicon; [2]) [nM] | EC50 (HCV replicon) [nM] |
| --- | --- | --- | --- |
| O=C(O)c1ccc2c(C3CCCCC3)c3n(c2c1)CC=Cc1cc(OCc2ccccc2)ccc1-3 | > 1000 | 100 to 1000 |  |
| O=C(O)c1ccc2c(C3CCCCC3)c3n(c2c1)CCCc1occc1-3 | > 1000 | 1000 to 10000 |  |
| CC(C)(C)OC(=O)N1/C=C\CCn2c(c(C3CCCCC3)c3ccc(C(=O)O)cc32)-c2ccccc21 | > 1000 | 1000 to 10000 |  |
| O=C(O)c1ccc2c(C3CCCCC3)c3n(c2c1)CCCCNc1ccccc1-3 | > 1000 | 100 to 1000 |  |
| O=C(O)c1ccc2c(C3CCCCC3)c3n(c2c1)CCCc1cc(O)ccc1-3 | 100 to 1000 | 100 to 1000 |  |
| O=C(O)c1ccc2c(C3CCCCC3)c3n(c2c1)C(O)c1ccccc1-3 (stereo not shown) | > 1000 | > 10000 |  |
| COC1c2ccccc2-c2c(C3CCCCC3)c3ccc(C(=O)O)cc3n21 (stereo not shown) | > 1000 | > 10000 |  |
| O=C(O)c1ccc2c(C3CCCCC3)c3c4ccccc4cc(C(=O)O)n3c2c1 | > 1000 | > 10000 |  |
| O=C(O)C1=Cc2ccccc2-c2c(C3CCCCC3)c3ccc(C(=O)O)cc3n2C1 | 100 to 1000 | > 10000 |  |
| CN(C)S(=O)(=O)NC(=O)c1ccc2c(C3CCCCC3)c3n(c2c1)CCCc1ccccc1-3 | 100 to 1000 | 100 to 1000 |  |
| Cn1cnc(S(=O)(=O)NC(=O)c2ccc3c(C4CCCCC4)c4n(c3c2)CCCc2ccccc2-4)c1 | > 1000 | 1000 to 10000 |  |
| O=C1Cn2c(c(C3CCCCC3)c3ccc(C(=O)NS(=O)(=O)C4CC4)cc32)-c2ccccc2N1 | 100 to 1000 | 100 to 1000 |  |
| CCOC(=O)/C=C/c1ccc(NC(=O)C2(NC(=O)c3ccc4c(C5CCCCC5)c5n(c4c3)CCCc3ncccc3-5)CCCC2)cc1 | > 1000 | < 100 |  |
| O=C(O)/C=C/c1ccc(NC(=O)C2(NC(=O)c3ccc4c(C5CCCCC5)c5n(c4c3)CCCc3ncccc3-5)CCCC2)cc1 | 100 to 1000 | < 100 |  |
| COC(=O)/C=C/c1ccc(NC(=O)C2(NC(=O)c3ccc4c(C5CCCCC5)c5n(c4c3)CCOc3cccnc3-5)CCCC2)cc1 | > 1000 | 100 to 1000 |  |
| O=C(O)/C=C/c1ccc(NC(=O)C2(NC(=O)c3ccc4c(C5CCCCC5)c5n(c4c3)CCOc3cccnc3-5)CCCC2)cc1 | 100 to 1000 | < 100 |  |
| CC(C)(C)OC(=O)/C=C/c1ccc(NC(=O)C2(NC(=O)c3ccc4c(C5CCCCC5)c5n(c4c3)CC(=O)Nc3cccnc3-5)CCCC2)cc1 | > 1000 | 100 to 1000 |  |
| O=C(O)/C=C/c1ccc(NC(=O)C2(NC(=O)c3ccc4c(C5CCCCC5)c5n(c4c3)CCOc3ccccc3-5)CCCC2)cc1 | 100 to 1000 | < 100 |  |
| O=C(O)/C=C/c1ccc(NC(=O)C2(NC(=O)c3ccc4c(C5CCCCC5)c5n(c4c3)CC=Cc3ccccc3-5)CCCC2)cc1 | 100 to 1000 | < 100 |  |
| O=C(O)/C=C/c1ccc(NC(=O)C2(NC(=O)c3ccc4c(C5CCCCC5)c5n(c4c3)CC(C(=O)N3CCOCC3)Cc3ccccc3-5)CCCC2)cc1 (stereo not shown) | 100 to 1000 | < 100 |  |
| CN(C)S(=O)(=O)NC(=O)c1ccc2c(C3CCCCC3)c3n(c2c1)CC(C(=O)N1CCN(c2ccncc2)CC1)Cc1ccccc1-3 (stereo not shown) | 100 to 1000 | < 100 |  |
| CN(C)S(=O)(=O)NC(=O)c1ccc2c(C3CCCCC3)c3n(c2c1)CC(C(=O)N1CCOCC1)Cc1ccccc1-3 (stereo not shown) | 100 to 1000 | < 100 |  |
| CN1CCN(C(=O)C2Cc3ccccc3-c3c(C4CCCCC4)c4ccc(C(=O)NS(=O)(=O)N(C)C)cc4n3C2)CC1 (stereo not shown) | 100 to 1000 | 100 to 1000 |  |
| CN(C)S(=O)(=O)NC(=O)c1ccc2c(C3CCCCC3)c3n(c2c1)CC(C(=O)N1CCC(N2CCCC2)CC1)Cc1ccccc1-3 (stereo not shown) | 100 to 1000 | < 100 |  |
| CN(C)S(=O)(=O)NC(=O)c1ccc2c(C3CCCCC3)c3n(c2c1)CC(C(=O)N1CCCC(O)C1)Cc1ccccc1-3 (stereo not shown) | 100 to 1000 | 100 to 1000 |  |
| CN(C)S(=O)(=O)NC(=O)c1ccc2c(C3CCCCC3)c3n(c2c1)CC(C(=O)N1CCOCC1)=Cc1ccccc1-3 | 100 to 1000 |  | < 100 |
